What is called DC50 is the concentration at which degradation of the target reaches its halfway point. A high value points to degradation only at high concentration. The term pIC50 denotes the negative decadic logarithm of the IC50, by convention in mol/L.

This passage reports DC50 and IC50 results from patent US11890288B2, “Sulfonamide or sulfinamide compound having effect of inducing BRD4 protein degradation and pharmaceutical use thereof” (MITSUBISHI TANABE PHARMA CORPORATION, priority 2020, dated 2024).

pIC50: −log10 of the molar value.

Assay [1] addresses BRD4 protein (Homo sapiens (Human), UniProt O60885). The assay can be described thus: BRD4 protein degradation inducing action in LNCaP cells (immunofluorescence, 6 hr). The assay is classed as cell-based. Conditions: anti-BRD4 fluorescence intensity. An outline of the steps:
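LNCaP cells in 10% FBS/RPMI1640 exposed to compound for 6 hr, fixed, permeabilized and immunostained for BRD4 with Alexa Fluor 546 secondary; fluorescence (ex 560, em 572 nm) read by imaging. DC50 = concentration giving 50% of untreated signal, interpolated linearly between the two bracketing points.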

Assay [2] deals with human prostate cancer LNCaP cells. As to the kind of experiment: Cytotoxic action on LNCaP cells (WST-8, 96 hr). The class given is cell-based. The conditions noted are these: 96 hr culture. An outline of the steps: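 Cells in 10% FBS/RPMI1640 plated overnight at 37° C, 5% CO2, then exposed to compound (DMSO stock diluted in medium) for 96 hr. Viable cells measured by WST-8. IC50 = concentration giving 50% survival versus untreated, interpolated linearly between the two bracketing points.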
(In general: Tetrazolium dyes change colour on reduction, which living cells bring about.)

On to `CCc1ccc(NS(=O)(=O)c2ccc([C@@H](C)NC(=O)c3ccc(-c4ccc(C5=N[C@@H](CC(=O)OC)c6nnc(C)n6-c6sc(C)c(C)c65)cc4)cn3)cc2)c2[nH]cc(C#N)c12` [Example 109, methyl {(6S)-4-[4-(6-{[(1R)-1-{4-[(3-cyano-4-ethyl-1H-indol-7-yl)sulfamoyl]phenyl}ethyl]carbamoyl}pyridin-3-yl)phenyl]-2,3,9-trimethyl-6H-thieno[3,2-f][1,2,4]triazolo[4,3-a][1,4]diazepin-6-yl}acetate], for which, in assay [1], the DC50 was determined as 0.082 nM. This compound also had a pIC50 in assay [2] of 9.44.
The corresponding values for `CCc1ccc(NS(=O)(=O)c2ccc(CCNC(=O)c3ccc(-c4ccc(C5=N[C@@H](CC(=O)OC)c6nnc(C)n6-c6sc(C)c(C)c65)cc4)cn3)cc2)c2[nH]cc(C#N)c12` [Example 110, methyl [(6S)-4-(4-{6-[(2-{4-[(3-cyano-4-ethyl-1H-indol-7-yl)sulfamoyl]phenyl}ethyl)carbamoyl]pyridin-3-yl}phenyl)-2,3,9-trimethyl-6H-thieno[3,2-f][1,2,4]triazolo[4,3-a][1,4]diazepin-6-yl]acetate] are 0.063 nM and 9.55.
The corresponding values for `CCc1ccc(NS(=O)(=O)c2ccc(CNC(=O)c3ccc(-c4ccc(C5=N[C@@H](CC(=O)OC)c6nnc(C)n6-c6sc(C)c(C)c65)cc4)cc3F)cc2)c2[nH]cc(C#N)c12` [Example 112, methyl [(6S)-4-{4′-[({4-[(3-cyano-4-ethyl-1H-indol-7-yl)sulfamoyl]phenyl}methyl)carbamoyl]-3′-fluoro[1,1′-biphenyl]-4-yl}-2,3,9-trimethyl-6H-thieno[3,2-f][1,2,4]triazolo[4,3-a][1,4]diazepin-6-yl]acetate] are 0.25 nM and 9.36.
The compound `CCc1ccc(NS(=O)(=O)c2ccc(CNC(=O)c3ccc(-c4ccc(C5=N[C@@H](CC(=O)OC)c6nnc(C)n6-c6sc(C)c(C)c65)cc4)cc3Cl)cc2)c2[nH]cc(C#N)c12` [Example 113, methyl [(6S)-4-{3′-chloro-4′-[({4-[(3-cyano-4-ethyl-1H-indol-7-yl)sulfamoyl]phenyl}methyl)carbamoyl][1,1′-biphenyl]-4-yl}-2,3,9-trimethyl-6H-thieno[3,2-f][1,2,4]triazolo[4,3-a][1,4]diazepin-6-yl]acetate] displayed a 50% degradation concentration (DC50) in assay [1] of 0.33 nM. In assay [2], this compound gave a pIC50 of 9.52.
The corresponding values for `CCc1ccc(NS(=O)(=O)c2ccc(CNC(=O)c3ccc(-c4ccc(C5=N[C@@H](CC(=O)OC)c6nnc(C)n6-c6sc(C)c(C)c65)cc4)cc3C)cc2)c2[nH]cc(C#N)c12` [Example Compound 114, methyl [(6S)-4-{4′-[({4-[(3-cyano-4-ethyl-1H-indol-7-yl)sulfamoyl]phenyl}methyl)carbamoyl]-3′-methyl[1,1′-biphenyl]-4-yl}-2,3,9-trimethyl-6H-thieno[3,2-f][1,2,4]triazolo[4,3-a][1,4]diazepin-6-yl]acetate] are 0.28 nM and 9.47.
`CCc1ccc(NS(=O)(=O)c2ccc(CNC(=O)c3ccc(-c4ccc(C5=N[C@@H](CC(=O)OC)c6nnc(C)n6-c6sc(C)c(C)c65)cc4)c(F)c3)cc2)c2[nH]cc(C#N)c12` [Example Compound 115, methyl [(6S)-4-{4′-[({4-[(3-cyano-4-ethyl-1H-indol-7-yl)sulfamoyl]phenyl}methyl)carbamoyl]-2′-fluoro[1,1′-biphenyl]-4-yl}-2,3,9-trimethyl-6H-thieno[3,2-f][1,2,4]triazolo[4,3-a][1,4]diazepin-6-yl]acetate] showed a half-maximal degradation concentration (DC50) in assay [1] of 0.13 nM. In assay [2], the negative-log IC50 (pIC50) was 9.49.
As to `CCc1ccc(NS(=O)(=O)c2ccc(CNC(=O)c3ccc(-c4ccc(C5=N[C@@H](CC(=O)OC)c6nnc(C)n6-c6sc(C)c(C)c65)cc4)c(Cl)c3)cc2)c2[nH]cc(C#N)c12` [Example Compound 116, methyl [(6S)-4-{2′-chloro-4′-[({4-[(3-cyano-4-ethyl-1H-indol-7-yl)sulfamoyl]phenyl}methyl)carbamoyl][1,1′-biphenyl]-4-yl}-2,3,9-trimethyl-6H-thieno[3,2-f][1,2,4]triazolo[4,3-a][1,4]diazepin-6-yl]acetate], half-maximal degradation in assay [1] (DC50) was put at 0.42 nM. The compound also gave a pIC50 in assay [2] of 9.19.
